Measured values as given in patent US5158963A, “1-4-dihydropyridine derivative, process for preparing the same and pharmaceutical composition containing the same” (Kaken Pharmaceutical Co., Ltd., priority 1989, dated 1992).
“Also recorded” adds a separate entry of the source.

Assays:
[1] = test system: immobility time of forced swimming test; assay: Activity against immobility time of forced swimming test in mice; assay type: in vivo, mouse (Slc:ICR male mice); conditions: oral; for effect on the immobility time (in words): 200 mg/kg
Description: In each group 6 Slc:ICR male mice weighing 25 to 32 g (5 weeks) were bred at the room temperature of 22° to 24° C. under an environment of 60% humidity for 1 week, and then the bred mice were subjected to the following test. The test was carried out by monitering action to voluntarily escape with TV camera when a mouse was put into a cylinder of which inner diameter was 11 cm wherein 17 cm of water being the temperature 25° C. as added. As indication immobility time for 6 minutes was measured. In the test mice were employed which were compulsorily swun for 6 minutes in once per day for continuous 3 day. The investigation for immobility time was carried out by measuring immobility time for 6 minutes 1 hour after oral administration of a test compound. Each of test compound was suspended in a 0.5% solution of methyl cellulose used as a control group. Significant difference is shown with the significance level (* : p<0.05) obtained by comparing data of control group by LSD method.

[2] = test system: tonic extensive convulsion (maximal electroshock-induced seizures); assay: Activity against maximal electroshock-induced seizures in mice; assay type: in vivo, mouse (Slc:ddy male mice); conditions: 200 mg/kg, oral
Description: In each group six Slc: ddy male mice weighing 26 to 31 g (5 weeks) were employed. Sixty minutes after oral administration of a test compound, corneal electrodes which were wet by physiological saline were contacted with both eyes of a mouse. Then, appearance of tonic extensive convulsion (TE) caused by electrifying under a stimulation condition of 50 mA, 1000 V and 0.2 sec by means of the apparatus of Woodburg & Davenport (made by Kyoto Keisokuki) was judged as indication.
Each of diphenylhydantoin, the compounds Nos. 2, 4, 5, 6, 7, 50, 51 and 52 of the present invention (refer Table 1, hereinafter the same) and nimodipine was suspended in a 0.5% solution of methyl cellulose to subject the test. Flunarizine was suspended in a 5% solution of gum arabic to subject the test.

[3] = test system: decapitation induced hypoxia; assay: Activity against decapitation induced hypoxia in mice; assay type: in vivo, mouse (Slc:ddy male mice); conditions: Mus musculus, 1 h, oral, 60 min before decapitation, duration of gasping vs control, read-out: Inhibition rate
Description: In each group five Slc:ddy male mice weighing 20 to 22 g (4 weeks) were employed. Sixty minutes after oral administration of a test compound, mice were decapitated with a guillotine. After the decapitation, duration of gasping of head was measured with a timer (CT-916 Type, made by HATTORI SEIKO CO., LTD.) gearing into the guillotine.
Each of test compound was suspended in a 0.5% solution of methyl cellulose and administered. Inhibition rate was calculated by comparing with a 0.5% aqueous solution of methyl cellulose as control. That is, the inhibition rate was calculated by the following formula. [formula]

blood pressure = assay: Activity for blood pressure in rats; assay type: in vivo, rat (Wister male rats); conditions: oral; for Blood pressure: 100 mg/kg
Description: In each group 4 Wister male rats weighing 200 to 300 g (10 to 15 weeks) were employed. The day before a test, rats were anesthetized with eter, and a polyethylene tube was inserted into aorta abdominalis of a rat. The other end of the polyethylene tube was led out of the rat's body. The led polyethylene tube was connected with a pressure transducer (RM-85, made by Yamamoto Kohden). Blood pressure was measured under a condition of no restriction.

SMILES	effect on the immobility time (in words) [1]	effect on immobility time of forced swimming test (in words) [1]	inhibitory activity against tonic extensive convulsion (share of cases) [2]	inhibition in vivo at 100 mg/kg [3] [%]	inhibition in vivo at 30 mg/kg [3] [%]	inhibition in vivo at 10 mg/kg ([3]; 10 mg/kg) [%]	Blood pressure (blood pressure; after 15 min.) [mmHg]	Blood pressure (blood pressure; after 30 min.) [mmHg]	Blood pressure (blood pressure; after 60 min.) [mmHg]	Blood pressure (blood pressure; after 120 min.) [mmHg]	activity for decreasing blood pressure (in words) (blood pressure; normal rats)
C#Cc1cccc(C2C(C(=O)OCC)=C(C)NC(C)=C2C(=O)OCCC)c1 (centres unmarked) [Compound No. 5, 5-Ethoxycarbonyl-3-n-propoxycarbonyl-1,4-dihydro-2,6-dimethyl-4-(3-ethynylphenyl)pyridine]	showed the effect on the immobility time	immobility time of forced swimming test reduced	two thirds								
C#Cc1cccc(C2C(C(=O)OC(C)C)=C(C)NC(C)=C2C(=O)OC(C)C)c1 [Compound No. 6, 3,5-Diisopropoxycarbonyl-1,4-dihydro-2,6-dimethyl-4-(3-ethynylphenyl)pyridine]	showed the effect on the immobility time	immobility time of forced swimming test reduced	a third								
C#Cc1cccc(C2C(C(=O)OC)=C(C)NC(C)=C2C(=O)OC(C)C)c1 (centres unmarked) [Compound No. 7, 5-Isopropoxycarbonyl-3-methoxycarbonyl-1,4-dihydro-2,6-dimethyl-4-(3-ethynylphenyl)pyridine]	showed the effect on the immobility time	immobility time of forced swimming test reduced	a third								
C#Cc1cccc(C2C(C(=O)OCC)=C(C)NC(C)=C2C(=O)OCC=C)c1 (centres unmarked) [Compound No. 50, 5-Ethoxycarbonyl-3-allyloxycarbonyl-1,4-dihydro-2,6-dimethyl-4-(3-ethynylphenyl)pyridine]	showed the effect on the immobility time	immobility time of forced swimming test reduced	all cases	31.1							
C#Cc1cccc(C2C(C(=O)OCC)=C(C)NC(C)=C2C(=O)OCC=CC)c1 (centres unmarked) [Compound No. 51, 5-Ethoxycarbonyl-3-crotyloxycarbonyl-1,4-dihydro-2,6-dimethyl-4-(3-ethynylphenyl)pyridine]	showed the effect on the immobility time	immobility time of forced swimming test reduced	all cases	28.3	25.7						
C#Cc1cccc(C2C(C(=O)OC)=C(C)NC(C)=C2C(=O)OCC=C(C)C)c1 (centres unmarked) [Compound No. 52, 5-Methoxycarbonyl-3-(3-methyl-2-butenyloxycarbonyl)-1,4-dihydro-2,6-dimethyl-4-(3-ethynylphenyl)pyridine]	showed the effect on the immobility time	immobility time of forced swimming test reduced	two thirds	26.4							
COC(=O)C1=C(C)NC(C)=C(C(=O)OCCN(C)Cc2ccccc2)C1c1cccc([N+](=O)[O-])c1 (centres unmarked) [Nicardipine, 2-(N-benzyl-N-methylamino)ethyl,methyl 2,6-dimethyl-4-(3-nitrophenyl)-1,4-dihydropyridine-3,5-dicarboxylate hydro chloride, reference compound]					6.8	4.2	100.0	67.2	69.2	67.2	strong antihypertensive activity; also recorded: remarkable activity for decreasing blood pressure
